Test results taken from ChEMBL document CHEMBL3046330, “Synthesis and biological activity of hydrazidehydrazones and their corresponding 3-acetyl-2,5-disubstituted-2,3-dihydro-1,3,4-oxadiazoles” (Med Chem Res, 2012).
In brackets after ≈: the same amount, converted by molar mass. Activity calls are given as the source filed them. The calls are words filed in the database; no cut-off is given here.

Experiments:
SK-MEL = assay: Cytotoxicity against Homo sapiens (human) SK-MEL cells assessed as cell viability up to 25 ug/ml after 48 hr by neutral red assay; type: functional, cell-based
Candida albicans [1] = assay: Antifungal activity against Candida albicans NRRL Y-12983 after 24 hr by NCCLS broth microdilution method; type: functional; settings: NRRL Y-12983, 24 h
RAW264.7 = assay: Cytotoxicity against Mus musculus (mouse) RAW264.7 cells up to 25 ug/ml; type: cell-based
Candida tropicalis [2] = assay: Antifungal activity against Candida tropicalis NRRL Y-12968 at 2000 ug/ml by agar diffusion method; type: functional; settings: read-out: IZ
SW1353 = assay: Inhibition of PMA-induced NFkappaB activity in Homo sapiens (human) SW1353 cells up to 25 ug/ml incubated for 30 min followed by PMA induction for 8 hr by luciferase reporter gene assay; type: cell-based
[3] = Cytotoxicity against Sus scrofa (pig) LLC-PK11 cells assessed as cell viability up to 25 ug/ml after 48 hr by neutral red assay; type: cell-based; settings: llc-pk11, 48 h
HL-60 [4] = assay: Antioxidant activity in PMA-stimulated Homo sapiens (human) HL60 cells assessed as inhibition of intracellular ROS generation up to 25 ug/ml incubated for 30 min prior to PMA stimulation measured after 30 min by DCFH-DA assay relative to vehicle-treated control; type: functional, cell-based
Candida albicans [5] = assay: Antifungal activity against Candida albicans clinical isolate at 2000 ug/ml by agar diffusion method; type: functional; settings: read-out: IZ
Transcription factor Sp1 = Transcription factor Sp1 (Homo sapiens, UniProt P08047); assay: Inhibition of Sp1 (unknown origin) up to 25 ug/ml by luciferase reporter gene assay
Transcription factor Sp1, sequence (P08047 whole entry): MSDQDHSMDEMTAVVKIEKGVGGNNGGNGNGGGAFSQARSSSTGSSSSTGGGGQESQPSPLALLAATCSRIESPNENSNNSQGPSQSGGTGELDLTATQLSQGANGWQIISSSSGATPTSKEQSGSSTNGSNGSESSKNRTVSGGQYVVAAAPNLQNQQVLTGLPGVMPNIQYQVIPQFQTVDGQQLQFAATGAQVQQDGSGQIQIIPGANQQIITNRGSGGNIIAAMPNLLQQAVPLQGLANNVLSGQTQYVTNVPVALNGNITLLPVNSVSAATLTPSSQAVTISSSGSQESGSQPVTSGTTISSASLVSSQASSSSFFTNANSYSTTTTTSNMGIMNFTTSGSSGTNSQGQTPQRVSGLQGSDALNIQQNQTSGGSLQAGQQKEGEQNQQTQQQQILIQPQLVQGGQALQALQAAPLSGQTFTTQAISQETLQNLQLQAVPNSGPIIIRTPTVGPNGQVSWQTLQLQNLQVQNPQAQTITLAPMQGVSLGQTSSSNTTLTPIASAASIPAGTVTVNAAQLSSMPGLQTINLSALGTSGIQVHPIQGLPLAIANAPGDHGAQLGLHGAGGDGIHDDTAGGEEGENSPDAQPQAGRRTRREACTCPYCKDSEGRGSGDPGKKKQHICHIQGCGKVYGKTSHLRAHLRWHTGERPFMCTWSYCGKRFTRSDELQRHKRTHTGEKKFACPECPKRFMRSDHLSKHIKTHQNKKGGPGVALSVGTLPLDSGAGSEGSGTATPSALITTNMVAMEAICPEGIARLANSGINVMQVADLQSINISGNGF

Nakaseomyces glabratus = assay: Antifungal activity against Candida glabrata clinical isolate after 24 hr by NCCLS broth microdilution method; type: functional
SK-OV-3 = assay: Cytotoxicity against Homo sapiens (human) SKOV3 cells assessed as cell viability up to 25 ug/ml after 48 hr by neutral red assay; type: functional, cell-based
HL-60 [6] = assay: Cytotoxicity against Homo sapiens (human) HL60 cells up to 25 ug/ml; type: cell-based
Vero = assay: Cytotoxicity against Chlorocebus aethiops (African green monkey) Vero cells assessed as cell viability up to 25 ug/ml after 48 hr by neutral red assay; type: cell-based; settings: chlorocebus sabaeus
Cyberlindnera jadinii = assay: Antifungal activity against Cyberlindnera jadinii NRRL Y-900 after 24 hr by NCCLS broth microdilution method; type: functional; settings: Williopsis jadinii, NRRL Y-900, 24 h
BT-549 = assay: Cytotoxicity against Homo sapiens (human) BT549 cells assessed as cell viability up to 25 ug/ml after 48 hr by neutral red assay; type: functional, cell-based
Candida tropicalis [7] = assay: Antifungal activity against Candida tropicalis NRRL Y-12968 after 24 hr by NCCLS broth microdilution method; type: functional; settings: NRRL Y-12968, 24 h
Candida albicans [8] = assay: Antifungal activity against Candida albicans ATCC 90028 after 24 hr by NCCLS broth microdilution method; type: functional; settings: ATCC 90028, 24 h
Candida albicans [9] = assay: Antifungal activity against Candida albicans clinical isolate after 24 hr by NCCLS broth microdilution method; type: functional
[10] = biological target: T1, Nitric oxide synthase, inducible (Mus musculus) (UniProt P29477); assay: Inhibition of iNOS in Mus musculus (mouse) RAW264.7 cells assessed as inhibition of LPS-induced nitrite production up to 25 ug/ml incubated for 30 min prior to LPS challenge measured after 24 hr by Griess assay relative to vehicle-treated control; type: cell-based
T1 sequence (whole entry): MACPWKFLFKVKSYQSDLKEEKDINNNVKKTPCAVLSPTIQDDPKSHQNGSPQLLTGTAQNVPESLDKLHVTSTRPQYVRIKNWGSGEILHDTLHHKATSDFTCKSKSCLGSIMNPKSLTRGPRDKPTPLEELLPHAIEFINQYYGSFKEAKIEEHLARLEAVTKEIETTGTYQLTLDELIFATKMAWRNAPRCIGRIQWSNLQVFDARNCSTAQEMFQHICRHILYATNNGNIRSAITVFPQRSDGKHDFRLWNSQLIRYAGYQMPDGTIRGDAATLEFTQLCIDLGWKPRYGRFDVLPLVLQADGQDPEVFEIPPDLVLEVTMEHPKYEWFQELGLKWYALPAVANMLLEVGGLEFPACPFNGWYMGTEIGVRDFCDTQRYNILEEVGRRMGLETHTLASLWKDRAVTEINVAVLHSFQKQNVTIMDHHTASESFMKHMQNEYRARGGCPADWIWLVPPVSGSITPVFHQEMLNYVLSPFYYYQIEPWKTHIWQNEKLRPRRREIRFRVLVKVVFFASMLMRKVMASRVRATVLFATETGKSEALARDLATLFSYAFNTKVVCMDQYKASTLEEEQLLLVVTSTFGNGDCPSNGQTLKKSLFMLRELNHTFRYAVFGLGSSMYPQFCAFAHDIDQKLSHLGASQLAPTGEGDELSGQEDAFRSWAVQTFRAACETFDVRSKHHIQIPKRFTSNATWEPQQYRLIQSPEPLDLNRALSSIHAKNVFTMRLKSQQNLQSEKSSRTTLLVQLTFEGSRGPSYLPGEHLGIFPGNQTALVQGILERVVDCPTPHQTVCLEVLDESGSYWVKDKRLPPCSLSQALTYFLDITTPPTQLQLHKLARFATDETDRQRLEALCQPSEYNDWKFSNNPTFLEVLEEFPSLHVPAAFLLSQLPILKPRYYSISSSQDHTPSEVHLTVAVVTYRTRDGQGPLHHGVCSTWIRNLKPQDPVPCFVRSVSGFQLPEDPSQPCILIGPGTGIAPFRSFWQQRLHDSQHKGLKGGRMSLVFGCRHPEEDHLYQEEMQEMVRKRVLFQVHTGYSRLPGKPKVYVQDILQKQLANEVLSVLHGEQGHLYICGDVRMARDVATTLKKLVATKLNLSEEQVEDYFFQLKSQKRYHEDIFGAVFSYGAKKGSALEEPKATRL

Candida parapsilosis = assay: Antifungal activity against Candida parapsilosis NRRL Y-12696 after 24 hr by NCCLS broth microdilution method; type: functional; settings: Lodderomyces parapsilosis, NRRL Y-12696, 24 h
KB = assay: Cytotoxicity against Homo sapiens (human) KB cells assessed as cell viability up to 25 ug/ml after 48 hr by neutral red assay; type: functional, cell-based
Pichia kudriavzevii = assay: Antifungal activity against Pichia kudriavzevii NRRL Y-7179 after 24 hr by NCCLS broth microdilution method; type: functional; settings: NRRL Y-7179, 24 h
HL-60 [11] = assay: Cytotoxicity against Homo sapiens (human) HL60 cells; type: cell-based
[12] = biological target: T2, Nitric oxide synthase, inducible (Mus musculus, UniProt P29477); assay: Inhibition of iNOS in Mus musculus (mouse) RAW264.7 cells assessed as inhibition of LPS-induced nitrite production incubated for 30 min prior to LPS challenge measured after 24 hr by Griess assay; type: cell-based
T2 sequence (P29477 whole entry): T1 sequence (whole entry)

Colletotrichum fragariae = assay: Antifungal activity against Colletotrichum fragariae at 0.3 to 30 uM after 48 to 72 hr by broth microdilution method; type: functional, organism-based
Botrytis cinerea = assay: Antifungal activity against Botryotinia fuckeliana at 0.3 to 30 uM after 48 to 72 hr by broth microdilution method; type: functional, organism-based

Row | SMILES | MIC (Candida albicans [1]) [µg/mL] | inhibition (INH) (Transcription factor Sp1) | MIC (Nakaseomyces glabratus) [µg/mL] | MIC (Cyberlindnera jadinii) [µg/mL] | MIC (Candida tropicalis [7]) [µg/mL] | MIC (Candida albicans [8]) [µg/mL] | MIC (Candida albicans [9]) [µg/mL] | MIC (Candida parapsilosis) [µg/mL] | Activity (SK-MEL) | Activity (RAW264.7) | zone of inhibition at 2000 µg/mL (Candida tropicalis [2]) [mm] | inhibition (SW1353) | Activity [3] | inhibition (HL-60 [4]) | zone of inhibition at 2000 µg/mL (Candida albicans [5]) [mm] | Activity (SK-OV-3) | Activity (HL-60 [6]) | Activity (Vero) | Activity (BT-549) | Activity (KB) | further results
1 | COc1cccc2c1C(=O)c1c(O)c3c(c(O)c1C2=O)C[C@@](O)(C(=O)CO)C[C@@H]3O[C@H]1C[C@H](N)[C@H](O)[C@H](C)O1 [DOXORUBICIN] |  |  |  |  |  |  |  |  |  |  |  |  |  |  |  |  |  |  |  |  | IC50 (HL-60 [11]): 0.16 µg/mL (≈ 0.294 µM)
2 | CN(C)c1ccc(/C=C/C=N/NC(=O)c2ccc(F)cc2)cc1 | 500 (≈ 1610 µM) | Not Active | 500 (≈ 1610 µM) | 500 (≈ 1610 µM) | 500 (≈ 1610 µM) | 500 (≈ 1610 µM) | 500 (≈ 1610 µM) | 500 (≈ 1610 µM) | inactive | Non-toxic | 9 | inactive | Not Active | inactive | 9 | inactive | Non-toxic | Not Active | inactive | inactive | inhibition [10]: inactive; MIC (Pichia kudriavzevii): 500 µg/mL (≈ 1610 µM)

Further lines, with some results ahead:

Row | MIC (Candida albicans [1]) [µg/mL] | inhibition (INH) (Transcription factor Sp1) | MIC (Nakaseomyces glabratus) [µg/mL] | MIC (Cyberlindnera jadinii) [µg/mL] | MIC (Candida tropicalis [7]) [µg/mL] | MIC (Candida albicans [8]) [µg/mL] | MIC (Candida albicans [9]) [µg/mL] | MIC (Candida parapsilosis) [µg/mL] | SMILES | Activity (SK-MEL) | Activity (RAW264.7) | zone of inhibition at 2000 µg/mL (Candida tropicalis [2]) [mm] | inhibition (SW1353) | Activity [3] | inhibition (HL-60 [4]) | zone of inhibition at 2000 µg/mL (Candida albicans [5]) [mm] | Activity (SK-OV-3) | Activity (HL-60 [6]) | Activity (Vero) | Activity (BT-549) | Activity (KB) | further results
3 | 500 (≈ 1590 µM) | Not Active | 250 (≈ 795 µM) | 250 (≈ 795 µM) | 500 (≈ 1590 µM) | 500 (≈ 1590 µM) | 250 (≈ 795 µM) | 500 (≈ 1590 µM) | COc1ccc(C2OC(c3ccc(F)cc3)=NN2C(C)=O)cc1 (stereo unspecified) | inactive | Non-toxic | 9 | inactive | Not Active | inactive | 9 | inactive | Non-toxic | Not Active | inactive | inactive | inhibition [10]: inactive; MIC (Pichia kudriavzevii): 500 µg/mL (≈ 1590 µM)
4 | 500 (≈ 1380 µM) | Not Active | 500 (≈ 1380 µM) | 500 (≈ 1380 µM) | 250 (≈ 688 µM) | 1000 (≈ 2750 µM) | 250 (≈ 688 µM) | 500 (≈ 1380 µM) | CC(=O)N1N=C(c2ccc(F)cc2)OC1c1ccc(Br)cc1 (stereo unspecified) | inactive | Non-toxic | 9 | inactive | Not Active | inactive | 9 | inactive | Non-toxic | Not Active | inactive | inactive | IC50 [12]: > 68.8 µM; Activity (Colletotrichum fragariae): inactive; Activity (Botrytis cinerea): inactive; MIC (Pichia kudriavzevii): 500 µg/mL (≈ 1380 µM)
5 | 500 (≈ 1650 µM) | Not Active | 500 (≈ 1650 µM) | 500 (≈ 1650 µM) | 500 (≈ 1650 µM) | 500 (≈ 1650 µM) | 500 (≈ 1650 µM) | 500 (≈ 1650 µM) | CC(=O)N1N=C(c2ccc(F)cc2)OC1c1ccc(F)cc1 (stereo unspecified) | inactive | Non-toxic | 9 | inactive | Not Active | inactive | 9 | inactive | Non-toxic | Not Active | inactive | inactive | inhibition [10]: inactive; MIC (Pichia kudriavzevii): 500 µg/mL (≈ 1650 µM)
